Assay results from ChEMBL document CHEMBL1201862, “PubChem BioAssay data set” (2004).
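96-well plates; 48 h exposure; 5 concentrations. Endpoints by linear interpolation between flanking doses. Not reached: highest tested concentration assigned. GI50 is the concentration that inhibits growth by half.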 Active and inactive are the calls of the source. Rule as the data show it: active = GI50 up to about 1.1 µM and inactive = higher.

Tests used:
Assay in all cases: NCI tumour cell line growth inhibition, 48 h
A498 = tested on: A498
ACHN = tested on: ACHN
CCRF-CEM = tested on: CCRF-CEM
HCC 2998 = tested on: HCC 2998
HCT-116 = tested on: HCT-116
HOP-62 = tested on: HOP-62
IGROV-1 = tested on: IGROV-1
KM12 = tested on: KM12
NCI-H460 = tested on: NCI-H460
NCI-H522 = tested on: NCI-H522
OVCAR-3 = tested on: OVCAR-3
RPMI-8226 = tested on: RPMI-8226
SNB-19 = tested on: SNB-19
SR = tested on: SR
SW-620 = tested on: SW-620
U-251 = tested on: U-251
CAKI-1 = tested on: CAKI-1

Measured: GI50

CC1=C(C(=O)NCc2ccccc2)C(c2ccc(Cl)c(Cl)c2)C(C(=O)NCc2ccccc2)=C(C)N1
inactive: A498 > 100 µM | ACHN > 100 µM | CCRF-CEM > 100 µM | HCC 2998 > 100 µM | HCT-116 > 100 µM | HOP-62 > 100 µM | IGROV-1 > 100 µM | KM12 > 100 µM | NCI-H460 > 100 µM | NCI-H522 > 100 µM | OVCAR-3 > 100 µM | RPMI-8226 > 100 µM | SNB-19 > 100 µM | SR > 100 µM | SW-620 > 100 µM | U-251 > 100 µM

Cc1cccc(C)c1NC(=O)CCC(=O)/N=C(\N)NC#N
inactive: A498 > 100 µM | ACHN > 100 µM | CAKI-1 > 100 µM | CCRF-CEM > 100 µM | HCC 2998 > 100 µM | HCT-116 > 100 µM | HOP-62 > 100 µM | IGROV-1 > 100 µM | KM12 > 100 µM | NCI-H460 > 100 µM | NCI-H522 > 100 µM | OVCAR-3 > 100 µM | RPMI-8226 > 100 µM | SNB-19 > 100 µM | SR > 100 µM | SW-620 > 100 µM | U-251 > 100 µM

O=C1C2C(C(=O)N1c1ccccc1)C1([N+](=O)[O-])C=C3c4ccccc4N(C(=O)c4ccccc4)C32C2C(=O)N(c3ccccc3)C(=O)C21 (stereo unspecified)
inactive: A498 > 100 µM | ACHN > 100 µM | CAKI-1 > 100 µM | CCRF-CEM > 100 µM | HCC 2998 > 100 µM | HCT-116 > 100 µM | HOP-62 > 100 µM | IGROV-1 > 100 µM | KM12 > 100 µM | NCI-H460 > 100 µM | NCI-H522 > 100 µM | OVCAR-3 > 100 µM | SNB-19 > 100 µM | SR > 100 µM | SW-620 > 100 µM | U-251 > 100 µM

C\C=C/C=C/C=C/C(=O)O
inactive: A498 > 100 µM | ACHN > 100 µM | CAKI-1 > 100 µM | CCRF-CEM > 100 µM | HCC 2998 > 100 µM | HCT-116 > 100 µM | HOP-62 > 100 µM | IGROV-1 > 100 µM | KM12 > 100 µM | NCI-H460 > 100 µM | NCI-H522 > 100 µM | OVCAR-3 > 100 µM | RPMI-8226 > 100 µM | SNB-19 > 100 µM | SW-620 > 100 µM | U-251 > 100 µM

CC1=C(CC2C(=O)N(c3ccccc3)S(=O)(=O)NC2C)C(=O)N(c2ccccc2)S(=O)(=O)N1C (stereo unspecified)
inactive: ACHN > 100 µM | CAKI-1 > 100 µM | CCRF-CEM > 100 µM | HCC 2998 > 100 µM | HCT-116 > 100 µM | HOP-62 > 100 µM | IGROV-1 > 100 µM | KM12 > 100 µM | NCI-H460 > 100 µM | NCI-H522 > 100 µM | OVCAR-3 > 100 µM | RPMI-8226 > 100 µM | SNB-19 > 100 µM | SR > 100 µM | SW-620 > 100 µM | U-251 > 10 µM

CCOc1ccccc1NC(=O)C1=C(C)NC(C)=C(C(=O)Nc2ccccc2OCC)C1c1cccc([N+](=O)[O-])c1
inactive: A498 51.2 µM | ACHN 29.9 µM | CAKI-1 5.9 µM | CCRF-CEM 37.9 µM | HCC 2998 36.6 µM | HOP-62 39.3 µM | IGROV-1 > 100 µM | KM12 49.9 µM | NCI-H460 87.9 µM | NCI-H522 22.4 µM | OVCAR-3 80.9 µM | RPMI-8226 8.22 µM | SNB-19 > 100 µM | SW-620 42.6 µM | U-251 > 100 µM

CC(=O)CC(=O)N(CCN(C(=O)CC(C)=O)c1ccccc1)c1ccccc1
inactive: A498 > 100 µM | ACHN > 100 µM | CAKI-1 > 100 µM | CCRF-CEM 58.2 µM | HCC 2998 > 100 µM | HCT-116 > 100 µM | HOP-62 > 100 µM | IGROV-1 > 100 µM | KM12 > 100 µM | NCI-H460 > 100 µM | NCI-H522 84.7 µM | OVCAR-3 > 100 µM | RPMI-8226 72.9 µM | SNB-19 > 100 µM | SW-620 > 100 µM | U-251 > 100 µM

CC1(O)CC2C(CC1SC1CC3C(CC1(C)O)C3(C)C)C2(C)C (stereo unspecified)
inactive: ACHN 35 µM | CCRF-CEM 27 µM | HCC 2998 33.6 µM | HCT-116 44.8 µM | IGROV-1 45 µM | KM12 46.8 µM | NCI-H460 30.7 µM | OVCAR-3 38.8 µM | RPMI-8226 41.9 µM | U-251 41.6 µM

CC(C)N(C(=O)C12C3C4C1C1C2C3C41I)C(C)C (stereo unspecified)
inactive: A498 > 100 µM | ACHN > 100 µM | CAKI-1 > 100 µM | CCRF-CEM > 100 µM | HCC 2998 > 100 µM | HCT-116 > 100 µM | IGROV-1 > 100 µM | KM12 > 100 µM | NCI-H460 > 100 µM | NCI-H522 > 100 µM | OVCAR-3 > 100 µM | SNB-19 > 100 µM | SR > 100 µM | SW-620 > 100 µM

Fc1cccc(/C=N/C23CC4CC(CC(C4)C2)C3)c1
inactive: A498 > 100 µM | ACHN > 100 µM | CAKI-1 > 100 µM | CCRF-CEM > 100 µM | HCC 2998 > 100 µM | HCT-116 > 100 µM | HOP-62 > 100 µM | IGROV-1 > 100 µM | KM12 > 100 µM | NCI-H460 > 100 µM | NCI-H522 > 100 µM | OVCAR-3 > 100 µM | RPMI-8226 > 100 µM | SNB-19 > 100 µM | U-251 > 100 µM

COC(=O)C1=C(O)c2cc3c(cc2[C@H](c2cc(OC)c(OC)c(OC)c2)C1)OCO3
inactive: A498 22.5 µM | ACHN 23.1 µM | CAKI-1 34.8 µM | CCRF-CEM 38.1 µM | HCC 2998 1.23 µM | HCT-116 55.3 µM | HOP-62 > 100 µM | IGROV-1 24.4 µM | KM12 23.3 µM | NCI-H460 34 µM | OVCAR-3 19 µM | RPMI-8226 23 µM | SNB-19 > 100 µM | SR 30.8 µM | SW-620 61.4 µM | U-251 44.5 µM

Clc1ccc(OCc2nnc3n2N=C(c2ccccc2)CS3)cc1
inactive: ACHN 10.9 µM | CAKI-1 24.9 µM | HCC 2998 16.6 µM | HCT-116 11.2 µM | HOP-62 19.1 µM | IGROV-1 4.47 µM | KM12 15.9 µM | NCI-H460 16.8 µM | NCI-H522 17.4 µM | OVCAR-3 16.9 µM | RPMI-8226 10.8 µM | SNB-19 18.7 µM | SR 6.5 µM | SW-620 14.7 µM | U-251 17.9 µM

CCN(c1n[n+]2c(-c3ccccc3)csc2s1)c1n[n+]2c(-c3ccccc3)csc2s1
inactive: ACHN > 100 µM | CCRF-CEM 32.5 µM | HCC 2998 > 100 µM | HCT-116 19.3 µM | IGROV-1 > 100 µM | KM12 30.8 µM | NCI-H460 53.1 µM | NCI-H522 35.6 µM | OVCAR-3 71.8 µM | RPMI-8226 29.6 µM | SNB-19 > 100 µM | SR 20.5 µM | SW-620 94.6 µM | U-251 > 100 µM
